Results published in US7538102B2, “Compounds for the treatment of Hepatitis C” (Bristol-Myers Squibb Company, priority 2007, dated 2009).
pEC50, pIC50: −log10 of the molar value. Read-outs that look alike come from different tables or passages of the source.

Assays:
HCV replicon = HCV replicon FRET / luciferase assay; format: cell-based; settings: Hepatitis C virus
Procedure: FRET Assay Preparation. The HCV FRET screening assay was performed in 96-well cell culture plates. The FRET peptide (Anaspec, Inc.) (Taliani et al., Anal. Biochem. 1996, 240, 60-67) contains a fluorescence donor, EDANS, near one end of the peptide and an acceptor, DABCYL, near the other end. The fluorescence of the peptide is quenched by […] resonance energy transfer (RET) between the donor and the acceptor, but as the NS3 protease cleaves the peptide the products are released from RET quenching and the fluorescence of the donor becomes apparent. The assay reagent was made as follows: 5× cell Luciferase cell culture lysis reagent from Promega (#E153A) diluted to 1× with dH2O, NaCl added to 150 mM final, the FRET peptide diluted to 20 μM final from a 2 mM stock.
To prepare plates, HCV replicon cells, with or without a Renilla luciferase reporter gene, were trypsinized and plated in a 96-well plate with titrated test compounds added in columns 3 through 12; columns 1 and 2 contained a control compound (HCV control inhibitor), and the bottom row contained cells with DMSO only. The plates were then placed in a CO2 incubator at 37° C.
Assays. Subsequent to addition of the test compounds described above (FRET Assay Preparation), at various times the plate was removed and Alamar blue solution (Trek Diagnostics, #00-100) was added to measure cellular toxicity. After reading in a Cytoflour 4000 instrument (PE Biosystems), plates were rinsed with PBS and then used for FRET assay by the addition of 30 ul of the FRET peptide assay reagent described above (FRET Assay Preparation) per well. The plate was then placed into the Cytoflour 4000 instrument which had been set to 340 excite/490 emission, automatic mode for up to 20 cycles and the plate read in a kinetic mode. Typically, the signal to noise using an endpoint analysis after the reads was at least three-fold. Alternatively, after Alamar blue reading, plates were rinsed with PBS, then used for luciferase assay using the Promega Dual-Glo Luciferase Assay System or the Promega EnduRen Live Cell Substrate assay.
Compound analysis was performed by quantification of the relative HCV replicon inhibition and the relative cytotoxicity values. To calculate cytoxicity values, the average Alamar Blue fluorescence signals from the control wells were set as 100% non-toxic. The individual signals in each of the compound test wells were then divided by the average control signal and multiplied by 100% to determine […]. To calculate the HCV replicon inhibition values, an average background value was obtained from the two wells containing the highest amount of HCV control inhibitor at the end of the assay period. These numbers were similar to those obtained from naive Huh-7 cells. The background numbers were then subtracted from the average signal obtained from the control wells and this number was used as 100% activity. The individual signals in each of the compound test wells were then divided by the averaged control values after background subtraction and multiplied by 100% to determine percent activity. EC50 values were calculated as the concentration which caused a 50% reduction in FRET or luciferase activity. The two numbers generated for the compound plate, percent cytoxicity and percent activity, were used to determine compounds of interest for further analysis.

HCV NS5B = target: T1, HCV NS5B (Hepatitis C virus genotype 1b, UniProt Q9WMX2); experiment: HCV NS5B RdRp enzyme assay (standard or modified); format: biochemical
T1 construct: The protein was expressed with an 18 amino acid C-terminal truncation to enhance the solubility; made in house; host or cells: E. coli BL21(DE3)
Procedure: HCV NS5B RdRp cloning, expression, and purification. The cDNA encoding the NS5B protein of HCV, genotype 1b, was cloned into the pET21a expression vector. The protein was expressed with an 18 amino acid C-terminal truncation to enhance the solubility. The E. coli competent cell line BL21(DE3) was used for expression of the protein. Cultures were grown at 37° C. for ˜4 hours until the cultures reached an optical density of 2.0 at 600 nm. The cultures were cooled to 20° C. and induced with 1 mM IPTG. Fresh ampicillin was added to a final concentration of 50 μg/ml and the cells were grown overnight at 20° C.
Cell pellets (3 L) were lysed for purification to yield 15-24 mgs of purified NS5B. The lysis buffer consisted of 20 mM Tris-HCl, pH 7.4, 500 mM NaCl, 0.5% triton X-100, 1 mM DTT, 1mM EDTA, 20% glycerol, 0.5 mg/ml lysozyme, 10 mM MgCl2, 15 ug/ml deoxyribonuclease I, and Complete TM protease inhibitor tablets (Roche). After addition of the lysis buffer, frozen cell pellets were resuspended using a tissue homogenizer. To reduce the viscosity of the sample, aliquots of the lysate were sonicated on ice using a microtip attached to a Branson sonicator. The sonicated lysate was centrifuged at 100,000×g for 1 hr at 4° C. and filtered through a 0.2 μm filter unit (Corning).
The protein was purified using two sequential chromatography steps: Heparin sepharose CL-6B and polyU sepharose 4B (Pharmacia). The chromatography buffers were identical to the lysis buffer but contained no lysozyme, deoxyribonuclease I, MgCl2 or protease inhibitor and the NaCl concentration of the buffer was adjusted according to the requirements for charging the protein onto the column. Each column was eluted with a NaCl gradient which varied in length from 5-50 column volumes depending on the column type. After the final chromatography step, the resulting purity of the enzyme is >90% based on SDS-PAGE analysis. The enzyme was aliquoted and stored at −80° C.
Standard HCV NS5B RdRp enzyme assay. HCV RdRp genotype 1b assays were run in a final volume of 60 μl in 96 well plates (Corning 3600). The assay buffer is composed of 20 mM Hepes, pH 7.5, 2.5 mM KCl, 2.5 mM MgCl2, 1 mM DTT, 1.6 U RNAse inhibitor (Promega N2515), 0.01 mg/ml BSA (Sigma B6917), and 2% glycerol. All compounds were serially diluted (3-fold) in DMSO and diluted further in water such that the final concentration of DMSO in the assay was 2%. HCV RdRp genotype 1b enzyme was used at a final concentration of 28 nM. A polyA template was used at 6 nM, and a biotinylated oligo-dT12 primer was used at 180 nM final concentration. Template was obtained commercially (Amersham 27-4110). Biotinylated primer was prepared by Sigma Genosys. 3H-UTP was used at 0.6 μCi (0.29 μM total UTP). Reactions were initiated by the addition of enzyme, incubated at 30° C. for 60 min, and stopped by adding 25 μl of 50 mM EDTA containing SPA beads (4 μg/pl, Amersham RPNQ 0007). Plates were read on a Packard Top Count NXT after >1 hr incubation at room temperature.
Modified HCV NS5B RdRp enzyme assay. A modified enzyme assay was performed essentially as described for the standard enzyme assay except for the following: The biotinylated oligo dT12 primer was precaptured on streptavidin-coated SPA beads by mixing primer and beads in assay buffer and incubating at room temperature for one hour. Unbound primer was removed after centrifugation. The primer-bound beads were resuspended in 20 mM Hepes buffer, pH 7.5 and used in the assay at final concentrations of 20 nM primer and 0.67 μg/μl beads. Order of addition in the assay: enzyme (1.75 nM) was added to diluted compound followed by the addition of a mixture of template (0.36 nM), 3H-UTP (0.6 μCi, 0.29 μM), and primer-bound beads, to initiate the reaction; concentrations given are final. Reactions were allowed to proceed for 4 hours at 30° C.
IC50 values for compounds were determined using seven different [I]. […]

[1] = HCV replicon cells, 50% reduction in FRET or luciferase activity, read-out: EC50
[2] = HCV NS5B RdRp genotype 1b, standard or modified enzyme assay not specified, read-out: IC50

T1 sequence (Q9WMX2 2420-2992): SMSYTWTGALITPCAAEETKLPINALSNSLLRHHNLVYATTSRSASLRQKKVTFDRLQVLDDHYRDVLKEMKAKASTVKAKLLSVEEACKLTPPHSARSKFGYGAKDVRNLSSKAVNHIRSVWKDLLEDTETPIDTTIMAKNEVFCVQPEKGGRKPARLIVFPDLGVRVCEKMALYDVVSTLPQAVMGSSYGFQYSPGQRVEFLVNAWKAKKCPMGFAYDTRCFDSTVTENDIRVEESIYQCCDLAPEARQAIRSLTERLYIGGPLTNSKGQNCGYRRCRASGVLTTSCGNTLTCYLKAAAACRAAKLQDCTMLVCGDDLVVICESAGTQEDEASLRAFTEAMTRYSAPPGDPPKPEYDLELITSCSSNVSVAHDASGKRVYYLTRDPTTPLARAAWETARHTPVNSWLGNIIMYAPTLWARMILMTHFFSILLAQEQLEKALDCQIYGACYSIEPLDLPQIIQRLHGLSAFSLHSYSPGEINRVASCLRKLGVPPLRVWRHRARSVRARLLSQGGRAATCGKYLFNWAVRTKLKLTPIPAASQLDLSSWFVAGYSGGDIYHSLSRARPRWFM

SMILES	pEC50 (HCV replicon; [1])	pIC50 (HCV NS5B; [2])	pEC50 (HCV replicon)	pIC50 (HCV NS5B)
COc1ccc2c(c1)C1CC1(C(=O)O[C@@H]1C[C@@H]3CC[C@@]1(C)C3(C)C)Cn1c-2c(C2CCCCC2)c2ccc(C(=O)NS(=O)(=O)N(C)C)cc21 (stereo partly drawn)	< 6.00	6.00 to 8.52	–	–
COc1ccc2c(c1)C1CC1(C(=O)N(C)C1CCN(C)C1)Cn1c-2c(C2CCCCC2)c2ccc(C(=O)NS(=O)(=O)N(C)C)cc21 (stereo not drawn)	6.00 to 8.52	6.00 to 8.52	–	–
COc1ccc2c(c1)C1CC1(C(=O)N(C)C1CCN(C)CC1)Cn1c-2c(C2CCCCC2)c2ccc(C(=O)NS(=O)(=O)N(C)C)cc21 (stereo not drawn)	6.00 to 8.52	6.00 to 8.52	–	–
COc1ccc2c(c1)C1CC1(C(=O)N(C)C(CN(C)C)c1ccccc1)Cn1c-2c(C2CCCCC2)c2ccc(C(=O)NS(=O)(=O)N(C)C)cc21 (stereo not drawn)	6.00 to 8.52	6.00 to 8.52	–	–
COc1ccc2c(c1)C1CC1(C(=O)N1CCCC1CN1CCCC1)Cn1c-2c(C2CCCCC2)c2ccc(C(=O)NS(=O)(=O)N(C)C)cc21 (stereo not drawn)	6.00 to 8.52	6.00 to 8.52	–	–
COc1ccc2c(c1)C1CC1(C(=O)N(C)CCN1CCCC1)Cn1c-2c(C2CCCCC2)c2ccc(C(=O)NS(=O)(=O)N(C)C)cc21 (stereo not drawn)	6.00 to 8.52	6.00 to 8.52	–	–
COc1ccc2c(c1)C1CC1(C(=O)N(C)CC1CCCN1C)Cn1c-2c(C2CCCCC2)c2ccc(C(=O)NS(=O)(=O)N(C)C)cc21 (stereo not drawn)	6.00 to 8.52	6.00 to 8.52	–	–
COc1ccc2c(c1)C1CC1(C(=O)N(C)CC1CCCCN1C)Cn1c-2c(C2CCCCC2)c2ccc(C(=O)NS(=O)(=O)N(C)C)cc21 (stereo not drawn)	6.00 to 8.52	6.00 to 8.52	–	–
COc1ccc2c(c1)C1CC1(C(=O)N(C)[C@@H]1CCCC[C@H]1N(C)C)Cn1c-2c(C2CCCCC2)c2ccc(C(=O)NS(=O)(=O)N(C)C)cc21 (stereo partly drawn)	6.00 to 8.52	6.00 to 8.52	–	–
COc1ccc2c(c1)C1CC1(C(=O)N(C1CC1)[C@@H]1CCCC[C@H]1N(C)C)Cn1c-2c(C2CCCCC2)c2ccc(C(=O)NS(=O)(=O)N(C)C)cc21 (stereo partly drawn)	6.00 to 8.52	6.00 to 8.52	–	–
COc1ccc2c(c1)C1CC1(C(=O)N[C@@H]1CCC[C@H]1N(C)C)Cn1c-2c(C2CCCCC2)c2ccc(C(=O)NS(=O)(=O)N(C)C)cc21 (stereo partly drawn)	6.00 to 8.52	6.00 to 8.52	–	–
COc1ccc2c(c1)C1CC1(C(=O)N(C)CC1(C3CCCCC3)CCCCC1)Cn1c-2c(C2CCCCC2)c2ccc(C(=O)NS(=O)(=O)N(C)C)cc21 (stereo not drawn)	6.00 to 8.52	6.00 to 8.52	–	–
COc1ccc2c(c1)C1CC1(C(=O)N1CCNC(c3ccccc3)C1)Cn1c-2c(C2CCCCC2)c2ccc(C(=O)NS(=O)(=O)N(C)C)cc21 (stereo not drawn)	6.00 to 8.52	6.00 to 8.52	–	–
COc1ccc2c(c1)C1CC1(C(=O)N1CCNC(c3cccc(Cl)c3)C1)Cn1c-2c(C2CCCCC2)c2ccc(C(=O)NS(=O)(=O)N(C)C)cc21 (stereo not drawn)	6.00 to 8.52	6.00 to 8.52	–	–
COc1ccc2c(c1)C1CC1(C(=O)N1CCCN(C(=O)OC(C)(C)C)CC1)Cn1c-2c(C2CCCCC2)c2ccc(C(=O)NS(=O)(=O)C3CC3)cc21 (stereo not drawn)	–	6.00 to 8.52	–	–
COc1ccc2c(c1)C1CC1(C(=O)N1CCCN(CCCN3CCOCC3)CC1)Cn1c-2c(C2CCCCC2)c2ccc(C(=O)NS(=O)(=O)C(C)C)cc21 (stereo not drawn)	–	6.00 to 8.52	–	–
COc1ccc2c(c1)C=C(C(=O)N1CCCN(CCCN3CCOCC3)CC1)Cn1c-2c(C2CCCCC2)c2ccc(C(=O)NS(=O)(=O)C3CC3)cc21	–	6.00 to 8.52	–	–
COc1ccc2c(c1)C1CC1(C(=O)NC1CC3CCC(C1)N3C)Cn1c-2c(C2CCCCC2)c2ccc(C(=O)NS(=O)(=O)N(C)C)cc21 (stereo not drawn)	–	–	6.00 to 8.52	6.00 to 8.52
COc1ccc2c(c1)C1CC1(C(=O)N[C@@H]1CC3CCN1CC3)Cn1c-2c(C2CCCCC2)c2ccc(C(=O)NS(=O)(=O)N(C)C)cc21 (stereo partly drawn)	–	–	6.00 to 8.52	6.00 to 8.52
COc1ccc2c(c1)C1CC1(C(=O)N(C)C1CC3CCC1N3C)Cn1c-2c(C2CCCCC2)c2ccc(C(=O)NS(=O)(=O)N(C)C)cc21 (stereo not drawn)	–	–	6.00 to 8.52	6.00 to 8.52
COc1ccc2c(c1)C1CC1(C(=O)N1CCN(CC(=O)N3CCCC3)CC1)Cn1c-2c(C2CCCCC2)c2ccc(C(=O)NS(=O)(=O)C(C)C)cc21 (stereo not drawn)	6.00 to 8.52	6.00 to 8.52	–	–
COc1ccc2c(c1)C1CC1(C(=O)N1CCN(Cc3ccccc3)C[C@H]1C)Cn1c-2c(C2CCCCC2)c2ccc(C(=O)NS(C)(=O)=O)cc21 (stereo partly drawn)	6.00 to 8.52	6.00 to 8.52	–	–
COc1ccc2c(c1)C1CC1(C(=O)N1CCN(C(=O)OC(C)(C)C)C[C@H]1c1ccccc1)Cn1c-2c(C2CCCCC2)c2ccc(C(=O)NS(C)(=O)=O)cc21 (stereo partly drawn)	6.00 to 8.52	6.00 to 8.52	–	–
COc1ccc2c(c1)C1CC1(C(=O)N1CCN(C)CC1c1ccccc1)Cn1c-2c(C2CCCCC2)c2ccc(C(=O)NS(=O)(=O)N(C)C)cc21 (stereo not drawn) [drawing 46]	–	6.00 to 8.52	–	–
COc1ccc2c(c1)C1CC1(C(=O)N1CCN(C)CC1c1ccccc1)Cn1c-2c(C2CCCCC2)c2ccc(C(=O)NS(=O)(=O)C(C)C)cc21 (stereo not drawn) [drawing 56]	–	6.00 to 8.52	–	–
COc1ccc2c(c1)C1CC1(C(=O)N1CCN(C)CC1c1ccccc1)Cn1c-2c(C2CCCCC2)c2ccc(C(=O)NS(=O)(=O)N(C)C)cc21 (stereo not drawn) [drawing 64]	–	6.00 to 8.52	–	–
COc1ccc2c(c1)C1CC1(C(=O)N1CCN(C)CC1c1ccccc1)Cn1c-2c(C2CCCCC2)c2ccc(C(=O)NS(=O)(=O)N(C)C)cc21 (stereo not drawn) [drawing 65]	–	6.00 to 8.52	–	–
COc1ccc2c(c1)C1C[C@]1(C(=O)N1CCN(C)CC1c1ccccc1)Cn1c-2c(C2CCCCC2)c2ccc(C(=O)NS(=O)(=O)C(C)C)cc21 (stereo partly drawn) [drawing 79]	–	6.00 to 8.52	–	–
